Laboratory results published in patent US20250275993A1, “GLYCOSYLATION INHIBITORS AS THERAPEUTICS FOR STROKE” (The Regents of the University of California, priority 2022, published 2025).

Legend:
[1] = system: human retinal microvascular EC (hRMECs); assay: hRMEC proliferation assay; assay type: cell-based
Protocol: (§1) Proliferation assays with BCECs and BRECs were performed. Log-phase growing BCECs or BRECs (passage <10) were trypsinized, re-suspended and seeded in 96-well plates (no coating) in low-glucose DMEM supplemented with 10% bovine calf serum, 2 mM glutamine, and antibiotics (growth medium), at a density of 1200-1500 cells per well in 200 μl volume. All reagents were added at the indicated final concentrations. After 3-6 days, cells were incubated with AlamarBlue for 4 hrs. Fluorescence was measured at 530 nm excitation wavelength and 590 nm emission wavelength. The experiments were repeated at least three times. To create a hypoxic condition, cells were placed in a hypoxia incubator with a mixture of gas consisting of 1% O2, 5% CO2 and 94% N2. On each 96-well plate, untreated and VEGF-treated (10/ng/ml) wells were included to monitor plate-to-plate variations. 20% methanol or 0.05% DMSO served as negative controls. […] Human RMVECs and human adult DMVECs were split into Gelatin-coated 96 wells (2000 cells per well) in low glucose DMEM containing 10% FBS. 1200 cells/well was set up for proliferation assay in low glucose media containing 0.5% FBS. Data was collected at day 4 or 5. HUVEC (p7-10) were grown on gelatin-coated plate until it reached 70-80% confluency.

4T1 cells = assay: 4T1 proliferation assay (MTS); assay type: cell-based
BCEC = BCEC transwell migration assay; assay type: cell-based, bovine; details: ManN at 40 μM
Protocol: HUVECs (passage 6-8) were cultured and serum-starved as described in “Western Blots”. Ten thousand cells in […] of EBM-2 medium were then added to the upper chamber of […] pore size cell culture inserts (Falcon) coated with 0.1% gelatin. The lower compartment was filled with […] EBM-2 medium containing various agents. The plates were incubated at 37° C. to allow migration. After 4 hrs, cells were fixed with 4% PFA for 20 min and then stained with crystal violet (Sigma-Aldrich) for 20 min at RT. Migrated cells on the bottom side of the insert membrane were quantified by counting whole area of the insert at 40× magnification. The experiments were carried out in triplicate and repeated three times. BCEC migration was set up similarly, except that wells were coated with FN, cells were suspended in 1% serum media and migration time was 18-24 hrs.

[2] = system: bovine retinal microvascular endothelial cells (BREC); assay: BREC proliferation assay; assay type: cell-based; details: bovine retinal EC
Protocol: as §1

[3] = system: N-linked glycans from BCECs; assay: N-glycan analysis of BCECs; assay type: cell-based, bovine
Protocol: As soon as BCECs reached about 80% confluency, they were washed twice with phosphate buffered saline (PBS, Sigma) and harvested by scraping. The cells were pelleted by centrifugation at 300 g for 3 mins and washed once with cold PBS. Cells were homogenized and total protein was measured. All subsequent analysis was based on known protein amount.
N-linked glycans were removed from glycoprotein samples using PNGase-F kit (New England BioLabs, P0705S). Briefly, 300 μg of protein sample was reconstituted in 180 μl UltraPure water. 20 μl of 10× denaturing buffer was added and boiled using 100° C. water bath for 14 mins. Samples were cooled down to room temperature and centrifuged at 2700 g for 1 min. Subsequently, 50 μl 10×NP-40 was added and samples were kept at room temperature for 30 mins with vortexing at 5 min interval, followed by adding 25 μL of 10× reaction buffer and mixing thoroughly. 5 μl PNGaseF (2500 U) was then added to the samples and mixed gently. Samples were incubated at 37° C. for 16 hrs. Released N-glycans were purified using solid phase extraction method. […] The data was collected using the Dionex ICS-3000 HPLC system with Ultimate 3000 fluorescence detector (Dionex) set at Acx 330 nm at Atm 420 nm with sensitivity 7. […]

BCECs = assay: Cellular uptake of ManN and conversion to ManN-6P (HPAEC-PAD); assay type: in vitro ADME, bovine
U87MG = U87MG proliferation assay; assay type: cell-based; details: ManN
Protocol: Proliferation assays with fibroblasts were done in low-glucose DMEM containing 1% FBS, with or without 10 ng/ml bFGF, or 100 ng/ml human EGF and the assay was ended at day 3. ARPE-19 cells were gently lifted with 0.025% trypsin and plated in RtEGM media (Clonetics) containing 2% FBS, L-glutamine, human bFGF and GA-1000. Once cells were attached to plates, serum-free RtEGM media was used to maintain the cultures. For proliferation assays, 1500 human RPE cells were plated into 96-well plates in low-glucose DMEM containing 1% FBS. A673, U87MG, Calu6 and AML12 cells were grown until confluent and were then harvested and re-suspended in appropriate assay media. For proliferation assays, cells were plated at the density of 1000-2000 cells/well in low-glucose DMEM containing 5% FBS or otherwise stated. Bovine pituitary cells (pituitary folliculostellate cells) were isolated as previously described. For proliferation assays with human epidermal keratinocytes, human DMVECs and human dermal fibroblast cells, 1000 cells/well were plated in low-glucose DMEM containing 1% FBS with or without various growth factors. The assay was ended at day 3 for bovine pituitary cells and at day 4 for all the other cell types. […] Four days later, tumor cell growth was measured by the MTS assay (Promega, Madison, WI), a colorimetric assay that measures metabolic activity of viable cells. […]

With `N[C@H](C=O)[C@@H](O)[C@H](O)[C@H](O)CO` [ManN, 2-Amino-2-deoxy-D-mannose] the “toxicity on hRMECs” value ([1]; 5 mM ManN) was “minimal toxicity”, the “additivity with VEGF on hRMEC proliferation” value ([1]; with VEGF) was “dose-dependent additivity with VEGF” and the “toxicity on 4T1 cells” value (4T1 cells; 5 mM) was “significant toxicity”. The “growth of 4T1” value (4T1 cells; ManN, MTS) was “did not promote growth”, the “additivity with VEGF in BCEC migration” value (BCEC) was “significant additivity with VEGF in promoting BCEC migration” and the “additive effects in promoting BREC proliferation” value [2] was “Additive effects”. For the same molecule, the “Man-5 and Man-7 content” value ([3]; 40 μM ManN) was “significant early phase accumulation”, the “Man-6, Man-8 and Man-9 in total oligomannose N-glycan content” value ([3]; 40 μM ManN vs untreated control) was “significant time-dependent reduction” and the “incorporation of ManN in N-glycans” value (BCECs; BCECs) was “No incorporation”. The “ManN detected in cell lysate” value (BCECs; BCECs treated with 400 μM ManN for 2 hours) was 0.66 nmol in 1 mg cell lysate and the “growth of U87MG” value (U87MG) was “did not promote growth”.
